Experimental data as given in publication PMC3235152, “Heteromeric Anopheline Odorant Receptors Exhibit Distinct Channel Properties” (PLoS ONE, 2011).

Experiments:
AgOrco = target: T1, AgOrco (Anopheles gambiae, UniProt Q7QCC7); test: Ca++ imaging concentration-response in HEK cells; format: cell-based
T1 construct: gene Orco; Orco homomer, stoichiometry unknown
T1 sequence (Q7QCC7 1-478): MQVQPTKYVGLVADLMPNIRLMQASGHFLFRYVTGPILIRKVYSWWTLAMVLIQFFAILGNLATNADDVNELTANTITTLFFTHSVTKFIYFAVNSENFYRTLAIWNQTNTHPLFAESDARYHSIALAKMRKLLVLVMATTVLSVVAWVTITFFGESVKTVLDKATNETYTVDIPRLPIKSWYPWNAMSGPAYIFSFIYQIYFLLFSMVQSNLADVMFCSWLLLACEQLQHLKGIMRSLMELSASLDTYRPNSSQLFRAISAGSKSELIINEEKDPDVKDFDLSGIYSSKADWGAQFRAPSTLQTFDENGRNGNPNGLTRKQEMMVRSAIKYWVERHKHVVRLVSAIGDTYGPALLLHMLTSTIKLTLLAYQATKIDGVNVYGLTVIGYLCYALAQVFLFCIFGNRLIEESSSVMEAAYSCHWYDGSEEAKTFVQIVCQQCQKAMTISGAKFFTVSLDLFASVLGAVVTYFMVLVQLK

AgOrco + AgOr65 = tested on: T2, AgOrco + AgOr65; test: Ca++ imaging concentration-response in HEK cells; format: cell-based, Anopheles gambiae; conditions: Orco agonist; AgOrco homomers may coexist
T2 construct: gene Orco; heteromer of unknown stoichiometry; VUAA1 acts on Orco, odorant on Or65, ruthenium red at the pore

AgOrco + AgOr8 = target: T3, AgOrco + AgOr8 (Anopheles gambiae, UniProt Q7PUT5+Q7QCC7); test: Ca++ imaging concentration-response in HEK cells; format: cell-based
T3 construct: gene Orco; heteromer of unknown stoichiometry; VUAA1 acts on Orco, odorant on Or8, ruthenium red at the pore
T3 sequence (Q7QCC7 1-478): T1 sequence (Q7QCC7 1-478)
T3 sequence (Q7PUT5 1-399): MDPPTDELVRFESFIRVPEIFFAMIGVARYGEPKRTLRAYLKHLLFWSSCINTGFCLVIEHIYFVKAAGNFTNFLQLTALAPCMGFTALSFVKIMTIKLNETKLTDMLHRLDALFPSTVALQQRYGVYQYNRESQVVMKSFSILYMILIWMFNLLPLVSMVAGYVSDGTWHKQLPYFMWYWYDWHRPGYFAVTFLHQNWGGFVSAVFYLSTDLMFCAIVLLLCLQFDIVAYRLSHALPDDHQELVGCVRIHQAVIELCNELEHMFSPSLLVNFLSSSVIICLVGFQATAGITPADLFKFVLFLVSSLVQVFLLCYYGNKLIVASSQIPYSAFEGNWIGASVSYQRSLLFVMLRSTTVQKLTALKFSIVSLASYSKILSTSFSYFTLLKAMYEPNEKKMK

AgOrco + AgOr10 [1] = target: T4, AgOrco + AgOr10 (Anopheles gambiae, UniProt B5U0U7+Q7QCC7); test: Ca++ imaging concentration-response in HEK cells; format: cell-based
T4 construct: gene Orco; heteromer of unknown stoichiometry; VUAA1 acts on Orco, odorant on Or10, ruthenium red at the pore
T4 sequence (Q7QCC7 1-478): T1 sequence (Q7QCC7 1-478)
T4 sequence (B5U0U7 1-375): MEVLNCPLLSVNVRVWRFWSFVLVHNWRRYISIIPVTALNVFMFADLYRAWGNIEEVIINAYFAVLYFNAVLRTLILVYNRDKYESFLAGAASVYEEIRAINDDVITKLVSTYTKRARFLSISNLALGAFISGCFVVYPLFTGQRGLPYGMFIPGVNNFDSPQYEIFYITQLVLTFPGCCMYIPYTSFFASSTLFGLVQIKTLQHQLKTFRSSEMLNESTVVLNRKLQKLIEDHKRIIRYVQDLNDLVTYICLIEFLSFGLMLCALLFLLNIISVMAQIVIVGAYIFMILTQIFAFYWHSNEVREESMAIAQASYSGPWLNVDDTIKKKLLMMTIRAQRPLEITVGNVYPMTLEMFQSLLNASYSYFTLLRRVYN

AgOrco + AgOr28 = tested on: T5, AgOrco + AgOr28; test: Ca++ imaging concentration-response in HEK cells; format: cell-based, Anopheles gambiae; conditions: Orco agonist; AgOrco homomers may coexist
T5 construct: gene Orco; heteromer of unknown stoichiometry; VUAA1 acts on Orco, odorant on Or28, ruthenium red at the pore

AgOrco + AgOr10 [2] = target: T4, AgOrco + AgOr10; test: whole-cell patch clamp, block of agonist-induced current; format: cell-based; conditions: 100 µM benzaldehyde as agonist; -60 mV; pH 7.35; 20–22°C; pore blocker, noncompetitive with VUAA1

SMILES | EC50 (AgOrco) [µM] | EC50 (AgOrco + AgOr65) [logM] | EC50 (AgOrco + AgOr8) [µM] | EC50 (AgOrco + AgOr10 [1]) [µM] | EC50 (AgOrco + AgOr28) [logM] | % current reduction at 100 μM (AgOrco + AgOr10 [2]) [%]
CCc1ccc(NC(=O)CSc2nnc(-c3cccnc3)n2CC)cc1 [VUAA1, N-(4-ethylphenyl)-2-((4-ethyl-5-(3-pyridinyl)-4H-1,2,4-triazol-3-yl)thio)acetamide] | 49 | −4.42±0.02 | 13.2 | 12.3 | −4.47±0.02 | –
N.N.N.N.N.N.N.N.N.N.N.N.N.N.[Cl-].[Cl-].[Cl-].[Cl-].[Cl-].[Cl-].[O-2].[O-2].[Ru+3].[Ru+3].[Ru+4] [ruthenium red] | – | – | – | – | – | 78.5±1.4
